The structures appear in SMILES notation. ≈ marks a conversion by molar mass, not a printed value.

Test [1] concerns clinical drug-resistant strain 040 of mycobacterium tuberculosis. Briefly: microbe, parasite or virus in culture. The format is cell-based. As to conditions: read-out: MIC, M.tb stains (drug-resistant strains) 40.
In test [2] the test system is clinical drug-resistant strain 004 of mycobacterium tuberculosis. Kind of test: microbe, parasite or virus in culture. Conditions: read-out: MIC, M.tb stains (drug-resistant strains) 004. The format is cell-based.

Consider `COc1cc2ccc(Br)cc2cc1C(c1cccc(Cl)c1)C(O)(CCN(C)C)c1cccc2ccccc12` (stereo not shown) [Compound 35, 1-(3-chlorophenyl)-2-(1-naphthyl)-1-[2-(7-bromo-3-methoxy)naphthyl]-4-(N,N-dimethylamino)-butan-2-ol], for which the MIC in test [1] is 0.125 µg/mL (≈ 0.212 µM); in test [2], 0.5 µg/mL (≈ 0.849 µM).
For `COc1cc2ccc(Br)cc2cc1C(c1cccc(C)c1)C(O)(CCN(C)C)c1cccc2ccccc12` (stereo not shown) [Compound 37, 1-(3-methylphenyl)-2-(1-naphthyl)-1-[2-(7-bromo-3-methoxy)naphthyl]-4-(N,N-dimethylamino)-butan-2-ol], in that order: 0.125 µg/mL (≈ 0.22 µM) and 0.5 µg/mL (≈ 0.879 µM).

The values above are taken from patent US8674136B2, “Aromatic butan-2-ol compounds and preparation and uses thereof” (Institute of Pharmacology and Toxicology Academy of …, priority 2010, dated 2014).
